Reference: the supplement of paper PMC4862054

Key:
Conditions in all cases: incubation time: 72 h
[1] = system: BT-474; experiment: normalised response (% of control), CellTox Green; higher = less cell death (100 = DMSO, 0 = benzethonium chloride kill control)
Outline: (§1)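 CellTox Green fluorescence (485/520 nm) and, after 10 min at room temperature, CellTiter-Glo luminescence were read from breast cancer cell lines incubated 72 h in 384-well plates. Cells were seeded as 20 µl suspension onto compound at 5 concentrations in 10-fold steps over a 10,000-fold range chosen per compound. Each plate was normalised to 0.1 % DMSO (100) and a positive kill control (0). Values are normalised signals, one per concentration.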

[2] = system: BT-549; experiment: as above
Outline: as §1

[3] = system: CAL-120; experiment: as above
Outline: as §1

[4] = system: CAL-148; experiment: as above
Outline: as §1

[5] = system: CAL-51; experiment: as above
Outline: as §1

[6] = system: CAL-85-1; experiment: as above
Outline: as §1

[7] = system: DU-4475; experiment: as above
Outline: as §1

[8] = system: HCC1143; experiment: as above
Outline: as §1

[9] = system: HCC1599; experiment: as above
Outline: as §1

[10] = system: HDQ-P1; experiment: as above
Outline: as §1

[11] = system: MCF-10A; experiment: as above
Outline: as §1

[12] = system: MDA-MB-231; experiment: as above
Outline: as §1

[13] = system: MDA-MB-436; experiment: as above
Outline: as §1

[14] = system: MDA-MB-453; experiment: as above
Outline: as §1

[15] = system: MDA-MB-468; experiment: as above
Outline: as §1

[16] = system: MFM-223; experiment: as above
Outline: as §1

[17] = system: BT-474; experiment: normalised response (% of control), CellTiter-Glo; higher = more viable cells (100 = DMSO, 0 = benzethonium chloride kill control)
Protocol: (§2)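 DSRT, 72 h incubation, CellTox Green / CellTiter-Glo readout. Signal is normalised to DMSO and benzethonium chloride controls. Value is the normalised response at dose 3.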

[18] = system: BT-549; experiment: as above
Protocol: as §2

[19] = system: CAL-120; experiment: as above
Protocol: as §2

[20] = system: CAL-148; experiment: as above
Protocol: as §2

[21] = system: CAL-51; experiment: as above
Protocol: as §2

[22] = system: CAL-85-1; experiment: as above
Protocol: as §2

[23] = system: DU-4475; experiment: as above
Protocol: as §2

[24] = system: HCC1143; experiment: as above
Protocol: as §2

[25] = system: HCC1599; experiment: as above
Protocol: as §2

[26] = system: HCC1937; experiment: as above
Protocol: as §2

[27] = system: HDQ-P1; experiment: as above
Protocol: as §2

[28] = system: Hs578T; experiment: as above
Protocol: as §2

[29] = system: MCF-10A; experiment: as above
Protocol: as §2

[30] = system: MDA-MB-231; experiment: as above
Protocol: as §2

[31] = system: MDA-MB-436; experiment: as above
Protocol: as §2

[32] = system: MDA-MB-453; experiment: as above
Protocol: as §2

[33] = system: MDA-MB-468; experiment: as above
Protocol: as §2

[34] = system: MFM-223; experiment: as above
Protocol: as §2

[35] = system: SK-BR-3; experiment: as above
Protocol: as §2

[36] = system: HCC1937; experiment: normalised response (% of control), CellTox Green; higher = less cell death (100 = DMSO, 0 = benzethonium chloride kill control)
Outline: as §1

[37] = system: Hs578T; experiment: as above
Outline: as §1

`COc1cc2ncnc(Nc3ccc(F)c(Cl)c3)c2cc1NC(=O)/C=C/CN1CCCCC1` [Dacomitinib] (10 nM) showed a normalised response [1] of 98.8%, a normalised response [2] of 102% and a normalised response [3] of 105%. For the same compound, the normalised response [4] was 101%, the normalised response [5] was 105% and the normalised response [6] was 90.5%. It also gave a normalised response [7] of 104%, a normalised response [8] of 80% and a normalised response [9] of 88.8%. For the same compound, the normalised response [10] was 50%, the normalised response [11] was 108% and the normalised response [12] was 103%. The normalised response [13] was 103%, the normalised response [14] was 98% and the normalised response [15] was 68.7%. It also gave a normalised response [16] of 100%, a normalised response [17] of 100% and a normalised response [18] of 105%. The normalised response [19] was 100%, the normalised response [20] was 103% and the normalised response [21] was 91%. The normalised response [22] was 84.2%, the normalised response [23] was 104% and the normalised response [24] was 102%. The normalised response [25] was 99.7%, the normalised response [26] was 98.1% and the normalised response [27] was 77%. It also gave a normalised response [28] of 108%, a normalised response [29] of 56.4% and a normalised response [30] of 106%. The normalised response [31] was 100%, the normalised response [32] was 96% and the normalised response [33] was 78.8%. It also gave a normalised response [34] of 103% and a normalised response [35] of 77.3%.

Compound `CC(C)Cn1cnc2c(N)nc3ccccc3c21` [Imiquimod] (25 nM) has a normalised response [1] of 102%, a normalised response [2] of 87.2% and a normalised response [3] of 96.9%. For the same compound, the normalised response [5] was 90.4%, the normalised response [6] was 98.1% and the normalised response [7] was 102%. For the same compound, the normalised response [8] was 81.4%, the normalised response [9] was 103% and the normalised response [36] was 102%. It also gave a normalised response [10] of 74.9%, a normalised response [37] of 51.6% and a normalised response [11] of 91.9%. The normalised response [12] was 100%, the normalised response [13] was 101% and the normalised response [14] was 61.1%. For the same compound, the normalised response [16] was 105%, the normalised response [17] was 104% and the normalised response [18] was 103%. The normalised response [19] was 101%, the normalised response [20] was 110% and the normalised response [21] was 81.8%. For the same compound, the normalised response [22] was 99.9%, the normalised response [23] was 107% and the normalised response [24] was 107%. It also gave a normalised response [25] of 101%, a normalised response [26] of 94.8% and a normalised response [27] of 101%. For the same compound, the normalised response [28] was 107%, the normalised response [29] was 103% and the normalised response [30] was 102%. It also gave a normalised response [31] of 104%, a normalised response [32] of 97.4% and a normalised response [33] of 104%. It also gave a normalised response [34] of 107% and a normalised response [35] of 106%.

`Cc1ccc(C(=O)Nc2ccc(CN3CCN(C)CC3)c(C(F)(F)F)c2)cc1C#Cc1cnc2cccnn12` [Ponatinib] (10 nM) showed a normalised response [1] of 100%, a normalised response [2] of 94.4% and a normalised response [3] of 102%. The normalised response [4] was 95.3%, the normalised response [5] was 99.5% and the normalised response [6] was 103%. It also gave a normalised response [7] of 101%, a normalised response [8] of 69.8% and a normalised response [9] of 101%. The normalised response [11] was 99.1%, the normalised response [13] was 73.4% and the normalised response [14] was 105%. It also gave a normalised response [15] of 93.2%, a normalised response [16] of 77.6% and a normalised response [17] of 105%. The normalised response [18] was 104%, the normalised response [19] was 106% and the normalised response [20] was 106%. The normalised response [21] was 106%, the normalised response [22] was 99.5% and the normalised response [23] was 101%. It also gave a normalised response [24] of 99.5%, a normalised response [25] of 89.4% and a normalised response [26] of 94.3%. The normalised response [27] was 105%, the normalised response [28] was 99.1% and the normalised response [29] was 111%. It also gave a normalised response [30] of 99.6%, a normalised response [31] of 109% and a normalised response [32] of 105%. It also gave a normalised response [33] of 106%, a normalised response [34] of 88.4% and a normalised response [35] of 106%.

`CNCc1ccc(-c2[nH]c3cc(F)cc4c3c2CCNC4=O)cc1` [Rucaparib] (100 nM) gave a normalised response [1] of 95.5%, a normalised response [2] of 71.6% and a normalised response [3] of 98.9%. The normalised response [4] was 97.4%, the normalised response [5] was 91.6% and the normalised response [6] was 97.5%. For the same compound, the normalised response [7] was 95.7%, the normalised response [8] was 104% and the normalised response [9] was 94.4%. For the same compound, the normalised response [10] was 104%, the normalised response [37] was 108% and the normalised response [12] was 87%. The normalised response [13] was 83.3%, the normalised response [14] was 102% and the normalised response [16] was 73.3%. It also gave a normalised response [17] of 93%, a normalised response [18] of 106% and a normalised response [19] of 92.8%. The normalised response [20] was 86%, the normalised response [21] was 84.1% and the normalised response [22] was 99.1%. It also gave a normalised response [23] of 97.2%, a normalised response [24] of 99.3% and a normalised response [25] of 109%. It also gave a normalised response [26] of 99.2%, a normalised response [27] of 98.3% and a normalised response [28] of 99.8%. The normalised response [29] was 93.6%, the normalised response [30] was 99.2% and the normalised response [31] was 90.6%. It also gave a normalised response [32] of 91.3%, a normalised response [33] of 104% and a normalised response [34] of 88.8%. The normalised response [35] was 90%.

With `Clc1ccc(Nc2nnc(Cc3ccncc3)c3ccccc23)cc1` [Vatalanib] (100 nM) the normalised response [1] was 99.6%, the normalised response [2] was 105% and the normalised response [3] was 102%. It also gave a normalised response [4] of 107%, a normalised response [5] of 110% and a normalised response [6] of 77.6%. The normalised response [7] was 101%, the normalised response [8] was 117% and the normalised response [9] was 106%. For the same compound, the normalised response [36] was 115%, the normalised response [10] was 109% and the normalised response [37] was 111%. For the same compound, the normalised response [11] was 103%, the normalised response [12] was 102% and the normalised response [14] was 64%. The normalised response [16] was 103%, the normalised response [17] was 103% and the normalised response [18] was 109%. It also gave a normalised response [19] of 99.1%, a normalised response [20] of 112% and a normalised response [21] of 89.3%. It also gave a normalised response [22] of 103%, a normalised response [23] of 105% and a normalised response [24] of 106%. The normalised response [25] was 109%, the normalised response [26] was 103% and the normalised response [27] was 101%. The normalised response [28] was 106%, the normalised response [29] was 111% and the normalised response [30] was 105%. For the same compound, the normalised response [31] was 111%, the normalised response [32] was 106% and the normalised response [33] was 108%. The normalised response [34] was 107% and the normalised response [35] was 102%.
